Columns and labels:
Experiment in all cases: relative viability (nuclei count vs DMSO), 5 days (fraction); higher = more cells survive
SW 1573 = test system: SW 1573
Method in brief: (§1)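 For relative viability, nuclei counts in treated wells were divided by those in vehicle wells. Lung cancer cell lines had been pin-tool dosed in 1536-well plates the day after seeding and cultured for 5 days, then fixed and stained in one step (final 0.05% Triton X-100, 1% formaldehyde, 1 ug/ml Hoechst) and imaged at 4×. Doses were one drug alone or a fixed anchor-drug dose plus five library-drug doses (not always all listed) in √10 steps, and values are duplicate-plate medians.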

NCI-H2126 = test system: NCI-H2126
Method in brief: as §1

NCI-H647 = test system: NCI-H647
Method in brief: as §1

NCI-H2085 = test system: NCI-H2085
Method in brief: as §1

NCI-H1734 = test system: NCI-H1734
Method in brief: as §1

EMC-BAC-2 = test system: EMC-BAC-2
Method in brief: as §1

PC-14 = test system: PC-14
Method in brief: as §1

NCI-H2023 = test system: NCI-H2023
Method in brief: as §1

LXF-289 = test system: LXF-289
Method in brief: as §1

NCI-H1915 = test system: NCI-H1915
Method in brief: as §1

NCI-H1563 = test system: NCI-H1563
Method in brief: as §1

SK-LU-1 = test system: SK-LU-1
Method in brief: as §1

NCI-H661 = test system: NCI-H661
Method in brief: as §1

H3255 = test system: H3255
Method in brief: as §1

NCI-H1993 = test system: NCI-H1993
Method in brief: as §1

EPLC-272H = test system: EPLC-272H
Method in brief: as §1

NCI-H2347 = test system: NCI-H2347
Method in brief: as §1

HOP-62 = test system: HOP-62
Method in brief: as §1

NCI-H727 = test system: NCI-H727
Method in brief: as §1

NCI-H322M = test system: NCI-H322M
Method in brief: as §1

LCLC-97TM1 = test system: LCLC-97TM1
Method in brief: as §1

NCI-H2009 = test system: NCI-H2009
Method in brief: as §1

Work on `COc1nc(C)cnc1NS(=O)(=O)c1cccnc1-c1ccc(-c2nnco2)cc1` [Zibotentan] + COc1cc2c(Oc3ccc(NC(=O)C4(C(=O)Nc5ccc(F)cc5)CC4)cc3F)ccnc2cc1OCCCN1CCOCC1 [Foretinib] (partner 0.25 µM) yielded a relative viability (SW 1573; first compound 0.08 µM) of 0.966, a relative viability (SW 1573; first compound 0.253 µM) of 0.692 and a relative viability (SW 1573; first compound 0.8 µM) of 0.983. For the same molecule, the relative viability (SW 1573; first compound 2.53 µM) was 0.82, the relative viability (NCI-H2126; first compound 0.08 µM) was 1.33 and the relative viability (NCI-H2126; first compound 0.253 µM) was 1.26. It also gave a relative viability (NCI-H2126; first compound 0.8 µM) of 0.982, a relative viability (NCI-H2126; first compound 2.53 µM) of 1.14 and a relative viability (NCI-H647; first compound 0.08 µM) of 1.13. The relative viability (NCI-H647; first compound 0.253 µM) was 0.996, the relative viability (NCI-H647; first compound 0.8 µM) was 1.06 and the relative viability (NCI-H647; first compound 2.53 µM) was 1.29. It also gave a relative viability (NCI-H2085; first compound 0.08 µM) of 0.97, a relative viability (NCI-H2085; first compound 0.253 µM) of 1.05 and a relative viability (NCI-H2085; first compound 0.8 µM) of 0.928. The relative viability (NCI-H2085; first compound 2.53 µM) was 1.18, the relative viability (NCI-H1734; first compound 0.08 µM) was 0.875 and the relative viability (NCI-H1734; first compound 0.253 µM) was 0.773. The relative viability (NCI-H1734; first compound 0.8 µM) was 0.883, the relative viability (NCI-H1734; first compound 2.53 µM) was 0.812 and the relative viability (EMC-BAC-2; first compound 0.08 µM) was 1.07. It also gave a relative viability (EMC-BAC-2; first compound 0.8 µM) of 1.05, a relative viability (EMC-BAC-2; first compound 2.53 µM) of 1.05 and a relative viability (PC-14; first compound 0.08 µM) of 1.03. The relative viability (PC-14; first compound 0.253 µM) was 0.897, the relative viability (PC-14; first compound 0.8 µM) was 0.924 and the relative viability (PC-14; first compound 2.53 µM) was 1. The relative viability (NCI-H2023; first compound 0.08 µM) was 0.942, the relative viability (NCI-H2023; first compound 0.253 µM) was 0.668 and the relative viability (NCI-H2023; first compound 0.8 µM) was 0.932. The relative viability (NCI-H2023; first compound 2.53 µM) was 0.978, the relative viability (LXF-289; first compound 0.08 µM) was 0.965 and the relative viability (LXF-289; first compound 0.253 µM) was 0.95. For the same molecule, the relative viability (LXF-289; first compound 0.8 µM) was 1.05, the relative viability (LXF-289; first compound 2.53 µM) was 0.954 and the relative viability (NCI-H1915; first compound 0.08 µM) was 1.16. The relative viability (NCI-H1915; first compound 0.253 µM) was 1.1, the relative viability (NCI-H1915; first compound 0.8 µM) was 1.06 and the relative viability (NCI-H1915; first compound 2.53 µM) was 1.07. It also gave a relative viability (NCI-H1563; first compound 0.08 µM) of 0.985, a relative viability (NCI-H1563; first compound 0.8 µM) of 1.02 and a relative viability (NCI-H1563; first compound 2.53 µM) of 0.979. It also gave a relative viability (SK-LU-1; first compound 0.08 µM) of 0.842, a relative viability (SK-LU-1; first compound 0.253 µM) of 0.873 and a relative viability (SK-LU-1; first compound 0.8 µM) of 0.855. It also gave a relative viability (SK-LU-1; first compound 2.53 µM) of 0.827, a relative viability (NCI-H661; first compound 0.08 µM) of 1.01 and a relative viability (NCI-H661; first compound 0.253 µM) of 0.969. The relative viability (NCI-H661; first compound 0.8 µM) was 0.995, the relative viability (NCI-H661; first compound 2.53 µM) was 1.01 and the relative viability (H3255; first compound 0.08 µM) was 0.966. It also gave a relative viability (H3255; first compound 0.253 µM) of 0.802, a relative viability (H3255; first compound 0.8 µM) of 0.945 and a relative viability (H3255; first compound 2.53 µM) of 0.987. The relative viability (NCI-H1993; first compound 0.08 µM) was 0.753, the relative viability (NCI-H1993; first compound 0.253 µM) was 0.811 and the relative viability (NCI-H1993; first compound 0.8 µM) was 0.702. The relative viability (NCI-H1993; first compound 2.53 µM) was 0.832, the relative viability (EPLC-272H; first compound 0.08 µM) was 0.696 and the relative viability (EPLC-272H; first compound 0.253 µM) was 0.641. It also gave a relative viability (EPLC-272H; first compound 0.8 µM) of 0.901, a relative viability (EPLC-272H; first compound 2.53 µM) of 0.787 and a relative viability (NCI-H2347; first compound 0.08 µM) of 0.995. For the same molecule, the relative viability (NCI-H2347; first compound 0.253 µM) was 0.896, the relative viability (NCI-H2347; first compound 0.8 µM) was 0.947 and the relative viability (NCI-H2347; first compound 2.53 µM) was 0.655. It also gave a relative viability (HOP-62; first compound 0.08 µM) of 1.06, a relative viability (HOP-62; first compound 0.253 µM) of 1.06 and a relative viability (HOP-62; first compound 0.8 µM) of 1.21. It also gave a relative viability (HOP-62; first compound 2.53 µM) of 1.07, a relative viability (NCI-H727; first compound 0.08 µM) of 1.07 and a relative viability (NCI-H727; first compound 0.253 µM) of 0.862. The relative viability (NCI-H727; first compound 0.8 µM) was 0.893, the relative viability (NCI-H727; first compound 2.53 µM) was 0.811 and the relative viability (NCI-H322M; first compound 0.08 µM) was 1.03. The relative viability (NCI-H322M; first compound 0.253 µM) was 0.782, the relative viability (NCI-H322M; first compound 0.8 µM) was 0.98 and the relative viability (NCI-H322M; first compound 2.53 µM) was 1.02. The relative viability (LCLC-97TM1; first compound 0.08 µM) was 1.01, the relative viability (LCLC-97TM1; first compound 0.253 µM) was 0.891 and the relative viability (LCLC-97TM1; first compound 0.8 µM) was 1. For the same molecule, the relative viability (LCLC-97TM1; first compound 2.53 µM) was 0.926, the relative viability (NCI-H2009; first compound 0.08 µM) was 1.25 and the relative viability (NCI-H2009; first compound 0.253 µM) was 1.24. For the same molecule, the relative viability (NCI-H2009; first compound 0.8 µM) was 1.28 and the relative viability (NCI-H2009; first compound 2.53 µM) was 1.35.

— the supplement of paper PMC10307832
